Target: T1, NADPH oxidase 1 (Homo sapiens, UniProt Q9Y5S8)
T1 sequence (Q9Y5S8 whole entry): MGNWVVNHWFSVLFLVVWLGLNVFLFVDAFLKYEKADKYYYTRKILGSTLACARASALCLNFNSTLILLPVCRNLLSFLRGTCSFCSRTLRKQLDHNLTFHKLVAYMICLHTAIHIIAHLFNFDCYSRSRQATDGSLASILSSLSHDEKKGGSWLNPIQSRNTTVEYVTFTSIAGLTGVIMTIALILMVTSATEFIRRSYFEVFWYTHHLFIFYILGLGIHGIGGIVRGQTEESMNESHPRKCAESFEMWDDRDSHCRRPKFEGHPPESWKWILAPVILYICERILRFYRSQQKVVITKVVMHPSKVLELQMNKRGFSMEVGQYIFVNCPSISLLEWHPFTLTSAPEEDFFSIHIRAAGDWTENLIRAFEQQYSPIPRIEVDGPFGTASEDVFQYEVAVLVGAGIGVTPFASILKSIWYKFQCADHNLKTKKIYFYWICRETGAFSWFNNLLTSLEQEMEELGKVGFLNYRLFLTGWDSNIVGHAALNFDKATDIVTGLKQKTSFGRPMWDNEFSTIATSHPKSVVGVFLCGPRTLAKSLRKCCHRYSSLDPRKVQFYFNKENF
Experiment: XO enzyme superoxide output inhibition – biochemical, IC50, set 2, NOX1 inhibitor project, late-stage follow-up (AID 435009)

Row | IC50 [µM] | SMILES
1 | > 50 | CN(C)c1ccc(CN=Nc2c(Cl)cncc2Cl)cc1
2 | > 50 | Oc1c(Br)cc(CN=Nc2c(Cl)cncc2Cl)cc1Br [4-[[2-[3,5-bis(chloranyl)pyridin-4-yl]hydrazinyl]methylidene]-2,6-bis(bromanyl)cyclohexa-2,5-dien-1-one]
